Columns and labels:
Type in all cases: binding
Xl64 [1] = target: T1, Xl64 (Xenopus laevis, UniProt Q9I910); assay: UV/vis absorption after incubation and gel filtration; details: synthetic 8-HDF, 100 µM with 20 µM protein, on ice; secondary pocket, antenna chromophore; protein holds FAD
T1 construct: gene Xl64phr; recombinant, pET-28a(+), E. coli C41(DE3)/pLysS
T1 sequence (Q9I910 1-526): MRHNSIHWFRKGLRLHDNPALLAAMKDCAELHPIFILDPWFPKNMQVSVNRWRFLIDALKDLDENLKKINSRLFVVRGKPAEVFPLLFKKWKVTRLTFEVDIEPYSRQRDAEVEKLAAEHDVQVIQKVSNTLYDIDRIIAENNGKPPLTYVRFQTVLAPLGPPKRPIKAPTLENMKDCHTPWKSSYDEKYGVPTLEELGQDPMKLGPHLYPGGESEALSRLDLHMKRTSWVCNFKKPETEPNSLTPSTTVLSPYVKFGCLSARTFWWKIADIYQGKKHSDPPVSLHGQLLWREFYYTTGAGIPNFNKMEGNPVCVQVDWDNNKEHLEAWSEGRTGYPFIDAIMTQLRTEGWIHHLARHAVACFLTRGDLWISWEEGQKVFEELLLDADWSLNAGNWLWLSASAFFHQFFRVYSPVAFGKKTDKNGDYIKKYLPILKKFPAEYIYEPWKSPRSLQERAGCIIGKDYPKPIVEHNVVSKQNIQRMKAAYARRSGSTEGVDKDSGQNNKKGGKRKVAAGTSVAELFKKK

CraCRY [2] = target: T2, CraCRY (Chlamydomonas reinhardtii, UniProt A8J8W0); assay: as above; details: synthetic 8-HDF, 100 µM with 20 µM protein, on ice; secondary pocket, antenna chromophore; protein holds FAD
T2 construct: gene CHLRE_06g278251v5; lacks C-terminal tail (497-595); His-tagged, pET-28a(+), E. coli BL21(DE3); TALON and heparin purified
T2 sequence (A8J8W0 1-496): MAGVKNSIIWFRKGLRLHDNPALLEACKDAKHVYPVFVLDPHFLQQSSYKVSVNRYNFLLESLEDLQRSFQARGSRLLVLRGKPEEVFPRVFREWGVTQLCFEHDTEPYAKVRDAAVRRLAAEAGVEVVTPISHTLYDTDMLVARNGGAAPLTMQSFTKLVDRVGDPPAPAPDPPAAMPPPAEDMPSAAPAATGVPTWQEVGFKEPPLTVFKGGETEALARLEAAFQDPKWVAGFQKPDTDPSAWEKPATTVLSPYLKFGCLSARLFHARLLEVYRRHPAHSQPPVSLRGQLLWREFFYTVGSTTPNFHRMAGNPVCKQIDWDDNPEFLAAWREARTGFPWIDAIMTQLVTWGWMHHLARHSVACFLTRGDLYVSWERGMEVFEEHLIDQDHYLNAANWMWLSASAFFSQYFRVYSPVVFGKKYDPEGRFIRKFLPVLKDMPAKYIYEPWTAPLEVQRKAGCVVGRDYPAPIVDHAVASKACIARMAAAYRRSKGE

Xl64 [3] = target: T1, Xl64; assay: UV/vis spectroscopy of purified holoprotein; xanthine/xanthine oxidase redox titration; details: co-purified FAD; pH 7.0, Safranin T reference
CraCRY [4] = target: T2, CraCRY; assay: as above; details: co-purified FAD; pH 7.0, Safranin T reference
At64 [5] = target: T3, At64 (Arabidopsis thaliana, UniProt O48652); assay: as above; details: co-purified FAD; pH 7.0, Safranin T reference
T3 construct: gene UVR3; recombinant, pET-28a(+), E. coli C41(DE3)/pLysS
T3 sequence (O48652 20-556): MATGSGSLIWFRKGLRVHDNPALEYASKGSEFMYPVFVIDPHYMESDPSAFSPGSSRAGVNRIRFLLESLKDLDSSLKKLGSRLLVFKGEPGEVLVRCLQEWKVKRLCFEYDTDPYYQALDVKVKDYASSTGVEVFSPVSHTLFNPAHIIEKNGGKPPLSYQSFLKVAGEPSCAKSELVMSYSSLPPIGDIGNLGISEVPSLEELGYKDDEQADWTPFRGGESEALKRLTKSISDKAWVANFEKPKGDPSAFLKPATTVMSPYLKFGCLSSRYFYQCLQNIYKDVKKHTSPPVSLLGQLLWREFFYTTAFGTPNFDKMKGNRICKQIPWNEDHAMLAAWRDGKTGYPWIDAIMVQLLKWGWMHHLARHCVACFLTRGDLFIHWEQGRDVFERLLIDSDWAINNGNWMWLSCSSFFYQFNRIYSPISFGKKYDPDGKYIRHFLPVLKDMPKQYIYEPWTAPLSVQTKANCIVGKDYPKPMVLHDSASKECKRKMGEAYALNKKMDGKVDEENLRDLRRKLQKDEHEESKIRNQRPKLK

At64 [6] = target: T4, At64 (Arabidopsis thaliana, UniProt O48652, DEL46-53); assay: as above; details: At64-ΔExLoop, extended loop Ser46 to Pro53 deleted; co-purified FAD; pH 7.0, Safranin T reference
T4 construct: gene UVR3; recombinant, pET-28a(+), E. coli C41(DE3)/pLysS
T4 sequence (O48652 with tags, fused parts or gaps DEL46-53): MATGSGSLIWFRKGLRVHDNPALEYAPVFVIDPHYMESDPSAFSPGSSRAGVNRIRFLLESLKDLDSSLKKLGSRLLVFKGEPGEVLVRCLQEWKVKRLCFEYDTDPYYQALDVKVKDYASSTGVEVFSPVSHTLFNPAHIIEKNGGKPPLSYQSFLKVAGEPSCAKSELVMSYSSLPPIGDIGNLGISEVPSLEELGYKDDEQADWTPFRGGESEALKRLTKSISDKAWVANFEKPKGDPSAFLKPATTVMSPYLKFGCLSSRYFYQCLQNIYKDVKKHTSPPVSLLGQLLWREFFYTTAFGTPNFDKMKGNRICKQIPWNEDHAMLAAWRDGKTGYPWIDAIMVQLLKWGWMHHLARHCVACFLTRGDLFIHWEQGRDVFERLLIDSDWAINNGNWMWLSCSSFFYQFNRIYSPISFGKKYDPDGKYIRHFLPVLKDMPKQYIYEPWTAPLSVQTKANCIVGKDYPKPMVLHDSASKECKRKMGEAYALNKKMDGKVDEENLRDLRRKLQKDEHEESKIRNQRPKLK

Row | absorption maximum of the complex (Xl64 [1]) | absorption maximum of the complex (CraCRY [2]) | SMILES | UV/vis spectroscopy of purified holoprotein; xanthine/xanthine oxidase redox tit (Xl64 [3]) | UV/vis spectroscopy of purified holoprotein; xanthine/xanthine oxidase redox tit (CraCRY [4]) | UV/vis spectroscopy of purified holoprotein; xanthine/xanthine oxidase redox tit (At64 [5]) | UV/vis spectroscopy of purified holoprotein; xanthine/xanthine oxidase redox tit (At64 [6])
1 | 441 nm | 448 nm | O=c1nc2n(C[C@H](O)[C@H](O)[C@H](O)CO)c3cc(O)ccc3cc-2c(=O)[nH]1 [8-HDF, 8-hydroxy-7,8-didemethyl-5-deazariboflavin] | – | – | – | –
2 | – | – | Cc1cc2nc3c(=O)[nH]c(=O)nc-3n(C[C@H](O)[C@H](O)[C@H](O)COP(=O)(O)OP(=O)(O)OC[C@H]3O[C@@H](n4cnc5c(N)ncnc54)[C@H](O)[C@@H]3O)c2cc1C [FAD, flavin adenine dinucleotide] | the Em,FAD values of the tested proteins (Xl64, At64, and CraCRY) were identical | the Em,FAD values of the tested proteins (Xl64, At64, and CraCRY) were identical | the Em,FAD values of the tested proteins (Xl64, At64, and CraCRY) were identical | the deletion of the extended loop did not affect the FAD binding site
